Reference: patent US20080009418A1, “Selective Inhibitors” (Alchemia LTD., priority 2004, published 2008)

Experiments:
[1] = target: T1, Human δ-opioid (DOP) (Homo sapiens, UniProt P41143); assay: Radioligand binding, human δ-opioid (DOP) membranes, FlashPlate, [3H]-Bremazocine; details: compound at 10 μM; [3H]-Bremazocine
T1 construct: purchased Perkin Elmer Biosignal
Summary of the method: (§1)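 Cloned human receptor membranes were coated onto FlashPlate wells and incubated with radioligand and compound (added from a 0.5 mM DMSO daughter plate) for 1 hour at room temperature in the dark. Scintillation counting gave percent inhibition, with DMSO defining total and reference ligand defining non-specific binding.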

[2] = target: T2, Human κ-Opioid (KOP) (Homo sapiens, UniProt P41145); assay: Radioligand binding, human κ-opioid (KOP) membranes, filtration, [3H]-Diprenorphine; details: compound at 10 μM, [3H]-Diprenorphine
T2 construct: purchased Perkin Elmer Biosignal
T2 sequence (P41145 whole entry): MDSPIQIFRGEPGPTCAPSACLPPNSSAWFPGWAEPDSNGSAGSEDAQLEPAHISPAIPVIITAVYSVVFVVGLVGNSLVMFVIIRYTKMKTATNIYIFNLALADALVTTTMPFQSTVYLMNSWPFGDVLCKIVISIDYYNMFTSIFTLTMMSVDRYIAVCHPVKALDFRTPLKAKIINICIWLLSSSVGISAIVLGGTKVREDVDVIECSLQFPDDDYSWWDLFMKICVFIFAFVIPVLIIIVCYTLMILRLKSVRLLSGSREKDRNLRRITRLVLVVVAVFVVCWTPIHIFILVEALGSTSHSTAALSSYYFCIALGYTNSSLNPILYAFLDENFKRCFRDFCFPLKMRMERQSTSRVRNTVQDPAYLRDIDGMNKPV
Summary of the method: (§2)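 Filtration binding on cloned human receptor membranes (1 Unit/well), [125I]-Substance P for NK1 and [3H]-Diprenorphine for KOP, 1 h at room temperature. Filters PEI-presoaked, washed with cold 50 mM Tris-HCl pH 7.4, counted by scintillation; percent inhibition calculated, reference ligand defining non-specific binding.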

[3] = target: T3, Human Melanocortin (MC3) (Homo sapiens, UniProt P41968); assay: Radioligand binding, human melanocortin MC3 membranes, FlashPlate, [125I]-NDP-αMSH; details: compound at 10 μM; [125I]-NDP-αMSH; 10 µM
T3 construct: purchased Perkin Elmer Biosignal
T3 sequence (P41968 whole entry): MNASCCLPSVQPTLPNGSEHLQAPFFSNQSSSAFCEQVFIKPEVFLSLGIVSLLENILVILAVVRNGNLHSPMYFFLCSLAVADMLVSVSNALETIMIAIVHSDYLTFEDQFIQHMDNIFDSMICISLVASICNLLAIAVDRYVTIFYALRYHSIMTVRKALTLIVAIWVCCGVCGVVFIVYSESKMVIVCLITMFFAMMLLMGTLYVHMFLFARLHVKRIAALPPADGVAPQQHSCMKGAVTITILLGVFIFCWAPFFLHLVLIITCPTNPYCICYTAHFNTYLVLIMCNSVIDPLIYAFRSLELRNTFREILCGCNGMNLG
Summary of the method: as §1

[4] = target: T4, Human Melanocortin (MC4) (Homo sapiens, UniProt P32245); assay: Radioligand binding, human melanocortin MC4 membranes, FlashPlate, [125I]-NDP-αMSH; details: compound at 10 μM; [125I]-NDP-αMSH
T4 construct: purchased Perkin Elmer Biosignal
T4 sequence (P32245 whole entry): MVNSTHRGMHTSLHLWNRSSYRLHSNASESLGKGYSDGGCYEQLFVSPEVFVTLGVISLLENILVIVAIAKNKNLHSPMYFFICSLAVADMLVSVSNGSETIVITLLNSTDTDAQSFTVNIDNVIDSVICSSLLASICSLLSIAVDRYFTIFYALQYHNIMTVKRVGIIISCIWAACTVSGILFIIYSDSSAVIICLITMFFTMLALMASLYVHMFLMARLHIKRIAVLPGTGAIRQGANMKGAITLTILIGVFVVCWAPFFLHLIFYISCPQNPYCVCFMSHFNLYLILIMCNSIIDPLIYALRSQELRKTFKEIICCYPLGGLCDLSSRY
Summary of the method: as §1

[5] = target: T5, Human melanocortin (MC5) (Homo sapiens, UniProt P33032); assay: Radioligand binding, human melanocortin MC5 membranes, FlashPlate, [125I]-NDP-αMSH; details: compound at 10 μM; [125I]-NDP-αMSH
T5 construct: purchased Perkin Elmer Biosignal
T5 sequence (P33032 whole entry): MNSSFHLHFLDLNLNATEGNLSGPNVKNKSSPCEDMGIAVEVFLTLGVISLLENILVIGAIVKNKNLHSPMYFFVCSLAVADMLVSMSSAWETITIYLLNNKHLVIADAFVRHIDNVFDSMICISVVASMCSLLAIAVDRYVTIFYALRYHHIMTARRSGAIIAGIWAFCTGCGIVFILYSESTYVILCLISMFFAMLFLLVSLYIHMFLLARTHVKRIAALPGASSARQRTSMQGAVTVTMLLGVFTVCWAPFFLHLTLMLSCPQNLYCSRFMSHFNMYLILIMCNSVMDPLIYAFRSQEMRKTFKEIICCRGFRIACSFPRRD
Summary of the method: as §1

[6] = target: T6, Human melanin-concentrating hormone (MCH1) (Homo sapiens, UniProt Q99705); assay: Radioligand binding, human melanin-concentrating hormone MCH1 membranes, FlashPlate, [125I]-S36057; details: compound at 10 μM; [125I]-S36057
T6 construct: purchased Perkin Elmer Biosignal
T6 sequence (Q99705 whole entry): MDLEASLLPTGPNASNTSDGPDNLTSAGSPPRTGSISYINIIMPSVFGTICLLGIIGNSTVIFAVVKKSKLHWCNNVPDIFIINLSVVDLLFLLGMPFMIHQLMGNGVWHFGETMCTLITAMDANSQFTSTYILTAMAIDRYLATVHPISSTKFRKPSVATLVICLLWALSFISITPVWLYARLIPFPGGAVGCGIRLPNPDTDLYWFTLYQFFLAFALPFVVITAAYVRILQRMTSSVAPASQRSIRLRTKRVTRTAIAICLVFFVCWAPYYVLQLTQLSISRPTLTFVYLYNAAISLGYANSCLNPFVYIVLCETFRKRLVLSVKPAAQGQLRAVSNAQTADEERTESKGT
Summary of the method: as §1

[7] = target: T7, Human μ-opioid (MOP) (Homo sapiens, UniProt P35372); assay: Radioligand binding, human μ-opioid (MOP) membranes, FlashPlate, [3H]-Naloxone; details: compound at 10 μM, [3H]-Naloxone
T7 construct: purchased Perkin Elmer Biosignal
T7 sequence (P35372 whole entry): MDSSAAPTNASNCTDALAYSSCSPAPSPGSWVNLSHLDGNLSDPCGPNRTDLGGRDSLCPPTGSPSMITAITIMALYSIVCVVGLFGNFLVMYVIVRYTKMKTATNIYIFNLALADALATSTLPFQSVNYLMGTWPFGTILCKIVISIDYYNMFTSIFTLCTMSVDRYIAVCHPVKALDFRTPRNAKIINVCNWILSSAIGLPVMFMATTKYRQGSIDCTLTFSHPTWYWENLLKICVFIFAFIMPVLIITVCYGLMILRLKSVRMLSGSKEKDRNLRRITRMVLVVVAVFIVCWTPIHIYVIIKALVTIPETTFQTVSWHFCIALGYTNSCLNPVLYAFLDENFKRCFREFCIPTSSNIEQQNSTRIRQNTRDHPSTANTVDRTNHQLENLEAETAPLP
Summary of the method: as §1

[8] = target: T8, Human neurokinin (NK1) (Homo sapiens, UniProt P25103); assay: Radioligand binding, human neurokinin NK1 membranes, filtration, [125I]-Substance P; details: compound at 10 μM; [125I]-Substance P
T8 construct: purchased Perkin Elmer Biosignal
T8 sequence (P25103 whole entry): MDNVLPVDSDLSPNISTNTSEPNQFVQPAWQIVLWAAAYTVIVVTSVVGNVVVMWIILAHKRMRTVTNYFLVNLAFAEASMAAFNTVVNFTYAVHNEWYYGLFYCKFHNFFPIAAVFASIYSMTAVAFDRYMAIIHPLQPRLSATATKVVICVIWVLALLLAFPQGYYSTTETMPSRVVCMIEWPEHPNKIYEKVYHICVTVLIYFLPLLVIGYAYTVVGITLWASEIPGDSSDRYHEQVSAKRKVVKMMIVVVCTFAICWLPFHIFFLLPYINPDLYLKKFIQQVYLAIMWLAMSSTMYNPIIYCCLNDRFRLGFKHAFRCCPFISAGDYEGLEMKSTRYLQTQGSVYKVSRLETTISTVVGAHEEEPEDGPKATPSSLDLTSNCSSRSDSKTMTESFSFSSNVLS
Summary of the method: as §2

[9] = target: T9, Human neuropeptide Y (NPY-Y1) (Homo sapiens, UniProt P25929); assay: Radioligand binding, human neuropeptide Y NPY-Y1 membranes, FlashPlate, [125I]-PYY; details: compound at 10 μM; [125I]-PYY
T9 construct: purchased Perkin Elmer Biosignal
T9 sequence (P25929 1-384): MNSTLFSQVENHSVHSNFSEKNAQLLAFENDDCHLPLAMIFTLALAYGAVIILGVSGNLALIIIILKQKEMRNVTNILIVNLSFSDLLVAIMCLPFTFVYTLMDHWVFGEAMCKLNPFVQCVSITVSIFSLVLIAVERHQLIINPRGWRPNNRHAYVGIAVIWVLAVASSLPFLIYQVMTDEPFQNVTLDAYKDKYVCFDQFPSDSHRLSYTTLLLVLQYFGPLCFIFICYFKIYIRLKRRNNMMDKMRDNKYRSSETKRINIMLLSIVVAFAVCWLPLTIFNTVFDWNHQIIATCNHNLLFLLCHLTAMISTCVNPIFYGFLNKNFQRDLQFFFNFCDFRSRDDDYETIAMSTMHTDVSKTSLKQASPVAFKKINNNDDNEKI
Summary of the method: as §1

[10] = target: T10, Human opioid (ORL1) (Homo sapiens, UniProt P41146); assay: Radioligand binding, human opioid ORL1 membranes, FlashPlate, [125I]-Nociceptin; details: compound at 10 μM, [125I]-Nociceptin
T10 construct: purchased Perkin Elmer Biosignal
T10 sequence (P41146 whole entry): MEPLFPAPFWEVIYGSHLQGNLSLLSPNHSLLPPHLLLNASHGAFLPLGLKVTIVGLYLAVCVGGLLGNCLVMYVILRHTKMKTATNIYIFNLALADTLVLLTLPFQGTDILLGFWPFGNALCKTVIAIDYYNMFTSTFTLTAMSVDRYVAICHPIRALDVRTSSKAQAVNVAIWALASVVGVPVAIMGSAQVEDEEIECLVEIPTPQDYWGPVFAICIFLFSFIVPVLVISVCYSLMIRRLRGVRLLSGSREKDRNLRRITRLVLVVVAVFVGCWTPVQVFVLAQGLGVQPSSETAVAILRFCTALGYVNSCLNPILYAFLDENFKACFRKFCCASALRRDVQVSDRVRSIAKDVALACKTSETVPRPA
Summary of the method: as §1

[11] = target: T11, Mouse urotensin (mUR2) (Mus musculus, UniProt Q8VIH9); assay: Radioligand binding, mouse urotensin mUR2 membranes, FlashPlate, [125I]-Urotensin II; details: compound at 10 μM; [125I]-Urotensin II
T11 construct: purchased Perkin Elmer Biosignal
T11 sequence (Q8VIH9 1-385): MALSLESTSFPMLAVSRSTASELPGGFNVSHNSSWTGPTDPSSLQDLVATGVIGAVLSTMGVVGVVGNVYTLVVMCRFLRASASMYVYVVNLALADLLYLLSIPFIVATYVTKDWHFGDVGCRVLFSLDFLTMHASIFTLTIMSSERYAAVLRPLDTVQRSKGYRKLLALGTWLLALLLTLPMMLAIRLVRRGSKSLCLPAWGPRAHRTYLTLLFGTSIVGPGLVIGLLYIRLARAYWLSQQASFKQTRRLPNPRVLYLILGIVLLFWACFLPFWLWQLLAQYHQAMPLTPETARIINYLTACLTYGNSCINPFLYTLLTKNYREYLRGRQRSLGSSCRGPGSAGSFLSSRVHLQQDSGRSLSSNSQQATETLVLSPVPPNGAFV
Summary of the method: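 Cloned mouse urotensin (mUR2) receptor membranes from Perkin Elmer Biosignal were immobilized in FlashPlate microplates using a proprietary coating. Each well got 19.5 μl buffer, then 0.5 μl of DMSO, reference ligand, or compound. Adding 5 μl of [125I]-Urotensin II, diluted to 5× final concentration in binding buffer, started binding. Plates were sealed with TopSeal-A and incubated 1 hour at room temperature in the dark. Wells were counted for 30 seconds each on a TopCount after a 60-second delay, and percentage inhibition was calculated.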

T1 sequence (P41143 whole entry): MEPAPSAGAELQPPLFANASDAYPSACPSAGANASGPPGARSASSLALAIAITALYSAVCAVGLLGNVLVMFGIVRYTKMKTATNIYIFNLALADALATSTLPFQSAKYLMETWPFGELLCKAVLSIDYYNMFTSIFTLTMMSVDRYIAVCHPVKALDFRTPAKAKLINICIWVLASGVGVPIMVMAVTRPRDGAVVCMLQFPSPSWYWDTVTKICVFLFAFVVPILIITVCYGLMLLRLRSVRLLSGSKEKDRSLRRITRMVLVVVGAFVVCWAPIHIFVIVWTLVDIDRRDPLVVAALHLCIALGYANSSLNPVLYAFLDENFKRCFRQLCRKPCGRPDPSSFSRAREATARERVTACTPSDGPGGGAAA

`N=C(N)NCC(=O)NC1C(OCc2ccc(Cl)cc2)OC(COCc2ccc3ccccc3c2)C(O)C1OCc1ccc(Cl)cc1` (single isomer, unassigned) [compound 507] was tested, and the “A1: inhibition of radioligand binding, human δ-opioid (DOP)” value (“A1: inhibition … human δ-opioid (DOP)” below) [1] was “− (“−” indicates less than 50% inhibition at 10 μM)”, the “A2: inhibition of radioligand binding, human κ-opioid (KOP)” value (“A2: inhibition of radioligand binding” for short) ([2]; 10 µM) was “− (“−” indicates less than 50% inhibition at 10 μM)” and the “A3: inhibition of radioligand binding, human melanocortin (MC3)” value (from here on “A3: inhibition of radioligand binding”) [3] was “− (“−” indicates less than 50% inhibition at 10 μM)”. The “A4: inhibition of radioligand binding, human melanocortin (MC4)” value (from here on “A4: inhibition of radioligand binding”) [4] was “+ (“+” indicates greater than 50% inhibition at 10 μM)”, the “A5: inhibition of radioligand binding, human melanocortin (MC5)” value (from here on “A5: inhibition of radioligand binding”) [5] was “+ (“+” indicates greater than 50% inhibition at 10 μM)” and the “A6: inhibition of radioligand binding, human melanin-concentrating hormone (MCH1)” value (from here on “A6: inhibition of radioligand binding”) [6] was “+ (“+” indicates greater than 50% inhibition at 10 μM)”. For the same compound, the “A7: inhibition of radioligand binding, human μ-opioid (MOP)” value (from here on “A7: inhibition of radioligand binding”) [7] was “− (“−” indicates less than 50% inhibition at 10 μM)”, the “A8: inhibition of radioligand binding, human neurokinin (NK1)” value (from here on “A8: inhibition of radioligand binding”) [8] was “+ (“+” indicates greater than 50% inhibition at 10 μM)” and the “A9: inhibition of radioligand binding, human neuropeptide Y (NPY-Y1)” value (from here on “A9: inhibition of radioligand binding”) [9] was “− (“−” indicates less than 50% inhibition at 10 μM)”. For the same compound, the “A10: inhibition of radioligand binding, human opioid (ORL1)” value (“A10: inhibition of radioligand binding” below) [10] was “+ (“+” indicates greater than 50% inhibition at 10 μM)” and the “A11: inhibition of radioligand binding, mouse urotensin (mUR2)” value (“A11: inhibition of radioligand binding” below) [11] was “− (“−” indicates less than 50% inhibition at 10 μM)”.

In the case of `N=C(N)NCC(=O)NC1C(OCc2ccc(Cl)cc2)OC(COCc2ccc3ccccc3c2)C(O)C1OCc1ccc(Cl)cc1` (single isomer, unassigned) [compound 508], the “A1: inhibition … human δ-opioid (DOP)” value [1] is reported as “− (“−” indicates less than 50% inhibition at 10 μM)”, the “A2: inhibition of radioligand binding” value ([2]; 10 µM) is reported as “+ (“+” indicates greater than 50% inhibition at 10 μM)” and the “A3: inhibition of radioligand binding” value [3] is reported as “+ (“+” indicates greater than 50% inhibition at 10 μM)”. The “A4: inhibition of radioligand binding” value [4] was “+ (“+” indicates greater than 50% inhibition at 10 μM)”, the “A5: inhibition of radioligand binding” value [5] was “+ (“+” indicates greater than 50% inhibition at 10 μM)” and the “A6: inhibition of radioligand binding” value [6] was “+ (“+” indicates greater than 50% inhibition at 10 μM)”. For the same compound, the “A7: inhibition of radioligand binding” value [7] was “− (“−” indicates less than 50% inhibition at 10 μM)”, the “A8: inhibition of radioligand binding” value [8] was “+ (“+” indicates greater than 50% inhibition at 10 μM)” and the “A9: inhibition of radioligand binding” value [9] was “− (“−” indicates less than 50% inhibition at 10 μM)”. For the same compound, the “A10: inhibition of radioligand binding” value [10] was “+ (“+” indicates greater than 50% inhibition at 10 μM)” and the “A11: inhibition of radioligand binding” value [11] was “− (“−” indicates less than 50% inhibition at 10 μM)”.

For `N=C(N)NCC(=O)NC1C(OCc2ccc(Cl)cc2)OC(COCc2ccccc2)C(O)C1OCc1ccc(Cl)cc1` (single isomer, unassigned) [compound 509], the “A1: inhibition … human δ-opioid (DOP)” value [1] was “− (“−” indicates less than 50% inhibition at 10 μM)”, the “A2: inhibition of radioligand binding” value [2] was “− (“−” indicates less than 50% inhibition at 10 μM)” and the “A3: inhibition of radioligand binding” value [3] was “− (“−” indicates less than 50% inhibition at 10 μM)”. For the same compound, the “A4: inhibition of radioligand binding” value [4] was “+ (“+” indicates greater than 50% inhibition at 10 μM)”, the “A5: inhibition of radioligand binding” value [5] was “+ (“+” indicates greater than 50% inhibition at 10 μM)” and the “A6: inhibition of radioligand binding” value [6] was “+ (“+” indicates greater than 50% inhibition at 10 μM)”. The “A7: inhibition of radioligand binding” value ([7]; 10 µM) was “+ (“+” indicates greater than 50% inhibition at 10 μM)”, the “A8: inhibition of radioligand binding” value [8] was “+ (“+” indicates greater than 50% inhibition at 10 μM)” and the “A9: inhibition of radioligand binding” value [9] was “− (“−” indicates less than 50% inhibition at 10 μM)”. For the same compound, the “A10: inhibition of radioligand binding” value ([10]; 10 µM) was “− (“−” indicates less than 50% inhibition at 10 μM)” and the “A11: inhibition of radioligand binding” value [11] was “− (“−” indicates less than 50% inhibition at 10 μM)”.
